Experimental findings from US8362000B2, “Azetidinyl diamides as monoacylglycerol lipase inhibitors” (Janssen Pharmaceutica NV, priority 2009, dated 2013) are described below.

For one assay, the target named is T1, MGL (Rattus norvegicus, UniProt Q8R431).
T1 construct: one g rat brain was homogenized using a Polytron homogenizer; from tissue; host or cells: rat brain homogenate
T1 sequence (Q8R431 1-303): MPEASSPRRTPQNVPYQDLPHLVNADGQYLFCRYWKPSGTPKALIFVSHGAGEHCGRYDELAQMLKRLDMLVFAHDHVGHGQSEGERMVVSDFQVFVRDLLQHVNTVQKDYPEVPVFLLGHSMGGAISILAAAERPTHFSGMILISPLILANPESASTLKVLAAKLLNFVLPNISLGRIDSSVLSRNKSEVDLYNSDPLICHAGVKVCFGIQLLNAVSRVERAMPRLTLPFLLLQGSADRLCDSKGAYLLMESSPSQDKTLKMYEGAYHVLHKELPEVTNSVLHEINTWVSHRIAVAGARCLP
In words: 2-AG accumulation assay in rat brain homogenate. It is filed as biochemical. The note with it: rat brain homogenate, 2-AG accumulation as percent of vehicle; for 2-AG accumulation, % of vehicle control at 0.01 µM: compound 0.01 μM, read-out: Rat Brain 2AG % VehCntrl (%) @ 0.01 μM; for 2-AG accumulation, % of vehicle control at 0.1 µM: compound 0.1 μM, read-out: Rat Brain 2AG % VehCntrl (%) @ 0.1 μM; for 2-AG accumulation, % of vehicle control at 1 µM: compound 1 μM, read-out: Rat Brain 2AG % VehCntrl (%) @ 1 μM; for 2-AG accumulation, % of vehicle control at 10 µM: compound 10 μM, read-out: Rat Brain 2AG % VehCntrl (%) @ 10 μM.

The subject of assay [1] is CFA-induced paw radiant heat hypersensitivity. In words: CFA-induced paw radiant heat hypersensitivity. It is filed as in vivo, rat. Conditions: Rattus norvegicus, po, 30 mg/kg p.o., HPβCD, last time point 180 or 300 min.
Assay [2] addresses T2, purified wild type MGL (wt-MGLL 6H-11-313) (Homo sapiens, UniProt Q99685).
T2 sequence (Q99685 1-303): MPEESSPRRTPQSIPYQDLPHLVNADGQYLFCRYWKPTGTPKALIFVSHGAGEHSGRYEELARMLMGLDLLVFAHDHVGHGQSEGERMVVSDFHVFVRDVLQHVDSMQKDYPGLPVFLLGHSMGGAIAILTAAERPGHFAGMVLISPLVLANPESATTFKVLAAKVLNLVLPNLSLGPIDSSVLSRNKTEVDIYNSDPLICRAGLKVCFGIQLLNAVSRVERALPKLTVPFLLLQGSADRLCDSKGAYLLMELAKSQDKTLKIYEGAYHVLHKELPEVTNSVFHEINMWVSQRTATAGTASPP

For a further assay, the target named is T3, mutant MGL (Homo sapiens, UniProt Q99685, L169S/L176S).
T3 sequence (Q99685 1-303 L169S/L176S): T2 sequence (Q99685 1-303) with L169S, L176S
In words: MGL ThermoFluor assay - mutant. It is filed as binding. The note with it: ThermoFluor concentration-response, read-out: MGL mutant ThermoFluor Kd. (In general: DSF heats the sample and reads unfolding from a dye or from intrinsic fluorescence.)

[3] abbreviates: group mean values, read-out: CFA thermal hypersensitivity Method 1: peak % reversal.
The mark [4] stands for this setting: individual animal values, read-out: CFA thermal hypersensitivity Method 2: peak % reversal.

Substitutions are numbered along the chain they refer to. Like-named read-outs stand apart in the source and are kept apart here.

On to `O=C(c1ccccc1)N1CCN(C2CN(C(=O)c3ccc(-c4ccccc4)cc3)C2)CC1` [Cpd 5, 1-[1-(Biphenyl-4-ylcarbonyl)azetidin-3-yl]-4-(phenylcarbonyl)piperazine], for which, at MGL, the 2-AG accumulation, % of vehicle control at 0.01 µM was determined as 122%; the 2-AG accumulation, % of vehicle control at 0.1 µM was found to be 123%; the 2-AG accumulation, % of vehicle control at 1 µM was found to be 156%; the 2-AG accumulation, % of vehicle control at 10 µM is 279%. Moreover, the inhibition in vivo at 30 mg/kg in assay [1] (setting [3]) is 96.6%. Also, in assay [1] (setting [4]), the inhibition in vivo at 30 mg/kg was determined as 100%. Also, in assay [2], the IC50 (as a rule, the midpoint of a concentration-inhibition curve) came out at 523 nM. Moreover, on mutant MGL, the Kd – broadly, the free concentration of one partner at which half of the binding sites on the other are occupied at equilibrium, for simple one-to-one binding – is 54.8 nM.

For the compound `O=C(c1ccc2c(-c3ccc(C(F)(F)F)cc3)c[nH]c2c1)N1CC(N2CCN(C(=O)c3nccs3)CC2)C1` [Cpd 1340], the 2-AG accumulation, % of vehicle control at 1 µM at MGL worked out at 761%. Besides, in assay [1] (setting [3]), the inhibition in vivo at 30 mg/kg amounted to 13.1%. In addition, in assay [2], the IC50 was below 5 nM. Also, the Kd at mutant MGL was found to be 1 nM.

For the compound `Cc1nc(-c2cccc(C(F)(F)F)c2)sc1C(=O)N1CC(N2CCN(C(=O)c3cscn3)CC2)C1` [Cpd 485, 1-[1-({4-Methyl-2-[3-(trifluoromethyl)phenyl]-1,3-thiazol-5-yl}carbonyl)azetidin-3-yl]-4-(1,3-thiazol-4-ylcarbonyl)piperazine], at MGL, the 2-AG accumulation, % of vehicle control at 0.1 µM came to 208%; the 2-AG accumulation, % of vehicle control at 1 µM worked out at 396%; the 2-AG accumulation, % of vehicle control at 10 µM was determined as 818%. In addition, the inhibition in vivo at 30 mg/kg in assay [1] (setting [3]) came out at 34.4%. Besides, the inhibition in vivo at 30 mg/kg in assay [1] (setting [4]) was 32.3%. The compound further returned an IC50 in assay [2] of 102 nM. The Kd at mutant MGL amounted to 25.7 nM.

In the case of `O=C(c1ccc2nc(-c3ccccc3)sc2c1)N1CC(N2CCN(C(=O)c3cscn3)CC2)C1` [Cpd 1187, 2-Phenyl-6-({3-[4-(1,3-thiazol-4-ylcarbonyl)piperazin-1-yl]azetidin-1-yl}carbonyl)-1,3-benzothiazole], the 2-AG accumulation, % of vehicle control at 1 µM on MGL worked out at 319%. Also, in assay [1] (setting [3]), the inhibition in vivo at 30 mg/kg came out at 16.3%. This compound gave an IC50 in assay [2] of 92 nM. For the same compound, at mutant MGL, the Kd was determined as 197 nM.

`O=C(c1ccc(-c2ccccc2)cc1)N1CC(N2CCN(C(=O)c3nccs3)CC2)C1` [Cpd 9, 1-[1-(Biphenyl-4-ylcarbonyl)azetidin-3-yl]-4-(1,3-thiazol-2-ylcarbonyl)piperazine]: on MGL, the 2-AG accumulation, % of vehicle control at 0.01 µM turned out to be 99%; the 2-AG accumulation, % of vehicle control at 0.1 µM amounted to 184%; the 2-AG accumulation, % of vehicle control at 1 µM amounted to 529%. The inhibition in vivo at 30 mg/kg in assay [1] (setting [3]) worked out at 75.4%. In assay [1] (setting [4]), the inhibition in vivo at 30 mg/kg was determined as 77.4%. The IC50 in assay [2] worked out at 17.4 nM. For the same compound, the Kd on mutant MGL was determined as 2.48 nM.
